Test results from patent publication US20060040901A1, “Derivatives of 1,3-cyclic propandiol phosphate and their action as cell stimulants” (YEDA RESEARCH AND DEVELOPMENT CO. Ltd., priority 2002, published 2006).

What was measured:
[1] = tested on: CHO cells; assay: Cell signaling analysis: tyrosine phosphorylation in CHO cells; type: cell-based, Chinese Hamster; conditions: for intracellular tyrosine phosphorylation: CHO cells, data not shown
Method: CHO cultures were grown as described above for PC12 cells. The cultures were divided into two groups and different compounds were added, followed by a period of incubation of from 1 to 30 minutes. Thus one CHO culture was incubated with 5 μM of 1,3-cyclic propandiol phosphate-2-methylamino at 37° C., the control being a similar CHO culture incubated with 1,3-cyclic glycerphosphate under the same conditions. […] In particular it was detected in a series of proteins with molecular weight of ≈35 kDa, ≈45 kDa, ≈60-70 kDa. as shown in FIG. 1.

[2] = tested on: PC12 cells; assay: Induction of neuronal outgrowth / neuronal differentiation in PC-12 cells; type: cell-based, rat; conditions: for neuronal differentiation / axonal outgrowth: data not shown; for neural outgrowth: 5 μM, after 8 days, microscope, FIG. 2
Method: (§1) In the presence of nerve growth factor these cells differentiate to neuronal cells. PC12 cells originated from rat pheochromocytoma were grown as monolayers in Eagle's medium (EM) supplemented with 10% fetal calf serum, 50 μg/ml gentamicin and 5 mM glutamine, in a humidified incubator buffered with 5% CO2, at 37° C. The culture medium is changed every four days and the cells are passaged every eight days and performed confluent monolayers (1.5×10^6 in a 10 cm plate or 10^5 cells per well in 24 wells plate). PC12 cells are originally round cells which, following several days in the presence of nerve growth factor (NGF) process nerves. Upon withdrawal of the NGF, the nerves retract and a process of apoptosis is initiated in the cells.
PC12 cells were grown in culture as explained above. The cells were divided into two groups and different compounds were added. To the first were added 5 μM 1,3-cyclic propandiol phosphate-5-caproylamido, while as a control to the second portion was added NGF. After a period of 8 days the two groups of PC12 cells were inspected by microscope.

[3] = tested on: Rat hippocampal neurons; assay: Neuronal morphology of cultured hippocampal neurons (stage 3); type: cell-based; conditions: three days
Method: Rat hippocampal neurons were cultured at low density in defined medium as described previously (Brann et al., 2002, J Bio Chem 277(12): 9812-9818), with slight modifications. Briefly, the dissected hippocampi of embryonic day 18 rats were dissociated by trypsinization (0.25% w/v, for 15 min at 37° C.). The tissue was washed in Mg^2+/Ca^2+-free Hanks' balanced salt solution (Invitrogen) and dissociated by repeated passage through a constricted Pasteur pipette. Cells were plated in minimal essential medium with 10% horse serum at a density of 25,000 cells per 13-mm glass cover slips that had been precoated with poly-L-lysine (1 mg/ml). After 2-4 hr, cover slips were transferred into 24-well plates (Nunc), containing B27 supplemented Neurobasal medium (Brewer, G. et al., 1993, J Neurosci Res 35: 567-576), and cultures were maintained in this defined medium throughout the experiment.
For morphological analysis, cover slips were removed from the 24-well plates on the 3rd day of culture. Neurons were fixed in 1% (v/v) glutaraldehyde in phosphate-buffered-saline for 20 min at 37° C., and mounted for microscopic examination in 50% glycerol in phosphate-buffered-saline. Neurons were examined by phase contrast microscopy using an Achroplan 32x/0.4 n.a. phase 2 objective of a Zeiss Axiovert 35 microscope. Neuronal growth was analyzed based on established developmental criteria of cultured hippocampal neurons (Schwarz et al., 1995, J Bio Chem 270(18): 10990-10998; Brann et al., 1999, J Neurosci 19(19): 8199-8206) as follows: (i) Only neurons at stage 3 were analyzed in this study. […] (iii) Only those cells in which the whole axon plexus could be unambiguously delineated were measured. (iv) The number of axonal branch points per cell were measured. […]
Images of neurons were acquired using NIH image (version 1.62) software. The analyze mode was set to a proportional ratio scale of pixel to μm, the outline of the neuron was copied using the freehand line tool, and the line length measured and analyzed according to the morphological criteria outlined above. […]

[4] = tested on: PC12 cells; assay: Rescue of PC12 cells from NGF deprivation (nerve rescue); type: cell-based, rat; conditions: data not shown
Method: as §1
Similar effects were observed (data not shown) for the following compounds. […] 2-Benzyloxy 1,3-chloropropanediol phosphate (Example 16 above) was dissolved in ethanol and from there introduced by 1:1000 dilution into PC12 cultures.

2-caproimido 1,3-chloropropanediol phosphate [Example 17]
intracellular tyrosine phosphorylation [1]: induced tyrosine phosphorylation | neuronal differentiation / axonal outgrowth [2]: neuronal differentiation

CCCCCC(=O)NC1COP(=O)(O)OC1 (stereo not shown) [Example 4, 1,3-cyclic propandiol phosphate-5-caproylamido]
neural outgrowth [2]: promoted neural outgrowth

CNC1COP(=O)(O)OC1 (stereo not shown) [Example 7, 1,3-cyclic propandiol phosphate-2-methylamino]
exposure time after which augmented tyrosine phosphorylation was noticed ([1]; CHO culture, 5 μM, 37° C.): ≤ 1 min | tyrosine phosphorylation of proteins (≈35 kDa, ≈45 kDa, ≈60-70 kDa) ([1]; CHO culture, 5 μM, 37° C., incubation 1 to 30 minutes, control 1,3-cyclic glycerphosphate, FIG. 1): Augmented tyrosine phosphorylation

O=P1(O)OCCCO1 [Example 9, 1,3-cyclic propanediol phosphate]
neuronal differentiation / axonal outgrowth [2]: triggering axonal outgrowth | total elongation of axon plexus compared to non-treated cells ([3]; pyramidal rat embryo hippocampal cells, 5 μM, FIG. 3): 32% | increase in length of the longest axon (main axon) compared to non-treated cells ([3]; pyramidal rat embryo hippocampal cells, 5 μM, FIG. 4): about 20% | increase in axonal branch points per cell compared with non-treated cells ([3]; rat embryo hippocampal cells, FIG. 5): about 47%

CC1COP(=O)(O)OC1 (stereo not shown) [Example 10, 2-methyl 1,3-cyclic propanediol phosphate]
neuronal differentiation / axonal outgrowth [2]: triggering axonal outgrowth

NP1(=O)OCCCO1 [Example 13, 1,3-cyclic propanediol phosphoamidate]
rescue from NGF deprivation (nerve rescue) [4]: did rescue them from NGF deprivation | intracellular tyrosine phosphorylation [1]: capable of inducing tyrosine phosphorylation | neuronal differentiation / axonal outgrowth [2]: did not induce neuronal differentiation

CCNP1(=O)OCCCO1 [Example 14, 1,3-cyclic propanediol N-ethyl phosphoamidate]
intracellular tyrosine phosphorylation [1]: promoted tyrosine phosphorylation | neuronal differentiation / axonal outgrowth [2]: did not induce neuronal differentiation

NGF: nerve growth factor, in whose presence PC12 cells differentiate to neuronal cells
neural outgrowth [2]: did not exhibit such promotion of neural outgrowth
